Measured values: patent US12558342B2, “2-[2-({12,12-dimethyl-4-oxo-6-phenyl-3,11-dioxatricyclo[8.4.0.0,2,7]tetradeca-1,5,7,9-tetraen-8-yl}oxy)acetamido]benzamide and derivatives as inhibitor of clock:bmal1 interaction for the treatment of circadian rhythm diseases and disorders” (KOC UNIVERSITESI, priority 2019, dated 2026)

Experiments:
[1] = target: T1, CLOCK and BMAL1 interaction (Homo sapiens, UniProt O15516); test: Co-immunoprecipitation of FLAG-CLOCK and BMAL1; assay type: biochemical; conditions: 10 μM and 40 μM
T1 construct: expressed in transfected cells; host or cells: HEK 293T
T1 sequence (O15516 1-846): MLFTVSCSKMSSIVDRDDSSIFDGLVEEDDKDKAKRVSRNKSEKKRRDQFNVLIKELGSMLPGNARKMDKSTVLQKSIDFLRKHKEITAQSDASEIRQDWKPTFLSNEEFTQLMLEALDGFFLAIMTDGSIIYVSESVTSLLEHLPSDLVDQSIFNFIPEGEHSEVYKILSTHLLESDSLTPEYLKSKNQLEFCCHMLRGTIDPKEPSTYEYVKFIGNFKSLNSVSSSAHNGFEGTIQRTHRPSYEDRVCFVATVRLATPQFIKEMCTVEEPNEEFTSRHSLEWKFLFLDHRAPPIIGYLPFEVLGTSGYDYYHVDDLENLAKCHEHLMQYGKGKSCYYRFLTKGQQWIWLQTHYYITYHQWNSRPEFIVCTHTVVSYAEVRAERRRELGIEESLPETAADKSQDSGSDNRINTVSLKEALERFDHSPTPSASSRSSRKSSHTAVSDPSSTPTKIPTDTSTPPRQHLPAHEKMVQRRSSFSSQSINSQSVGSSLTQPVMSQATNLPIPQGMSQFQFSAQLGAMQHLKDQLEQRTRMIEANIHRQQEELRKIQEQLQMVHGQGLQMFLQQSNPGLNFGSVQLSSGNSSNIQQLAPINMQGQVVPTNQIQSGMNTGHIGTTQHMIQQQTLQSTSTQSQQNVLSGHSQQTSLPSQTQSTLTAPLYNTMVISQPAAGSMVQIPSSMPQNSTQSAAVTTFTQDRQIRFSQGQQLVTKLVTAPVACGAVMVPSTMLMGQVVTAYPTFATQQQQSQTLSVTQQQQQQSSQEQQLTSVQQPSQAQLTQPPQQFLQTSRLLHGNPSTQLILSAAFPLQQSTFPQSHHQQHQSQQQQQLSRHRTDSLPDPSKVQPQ
Experimental: HEK 293T cells co-expressing wild type or F80A-K220A mutant FLAG-tagged Clock together with tag-free Bmal1 were lysed with ice-cold lysis buffer (50 mM Tris-HCl PH 7.7, 150 mM NaCl, 0.1% Triton X-100, 1 mM PMSF and protease inhibitor cocktail) and centrifuged at 15000×g at 4° C. for 20 minutes. DMSO and different concentrations of CLK8 were added to the whole cell lysate. The mixtures were incubated with anti-FLAG M2 affinity gel (Sigma-Aldrich) at 4° C. overnight with continuous mixing. After three wash steps, bound proteins were eluted with Laemmli buffer heated at 95° C. for 7 minutes. CLOCK and BMAL1 were detected by monoclonal anti-FLAG M2 antibody (Sigma-Aldrich) and anti-BMAL1 (Santa Cruz Biotechnology) respectively. The amount of co-precipitated BMAL1 was normalized with the amount of precipitated CLOCK.
HEK 293T cells co-expressing wild type or F80A-K220A mutant FLAG-tagged Clock together with tag-free Bmal1 were lysed with ice-cold lysis buffer (50 mM Tris-HCl pH 7.7, 150 mM NaCl, 0.1% Triton X-100, 1 mM PMSF and protease inhibitor cocktail) and centrifuged at 15000×g at 4° C. for 20 minutes. DMSO and different concentrations of CLK8 were added to the whole cell lysate. […] CLOCK and BMAL1 were detected by monoclonal anti-FLAG M2 antibody (Sigma-Aldrich) and anti-BMAL1 (Santa Cruz Biotechnology) respectively. […]

CLOCK [2] = target: T2, CLOCK (Homo sapiens, UniProt O15516); test: Pull-down assay with biotinylated CLK8, lysate of HEK293T cells overexpressing CLOCK and BMAL1; assay type: binding; design: expressed in transfected cells; host or cells: HEK293T; conditions: 200 μM competitor
T2 sequence (O15516 1-846): T1 sequence (O15516 1-846)
Experimental: HEK293T cells were transiently transfected with tag-free hsClock and mBmal1. After 48 hours of transfection, cells were harvested and whole cell lysate was prepared with ice-cold lysis buffer (50 mM Tris-HCl pH 7.4, 2 mM EDTA, 1 mM MgCl2, 0.2% NP-40, 1 mM sodium orthovanadate, 1 mM sodium fluoride and protease inhibitor cocktail) followed by centrifugation at 7000×g at 4° C. for 10 minutes. Lysate was diluted with ice-cold 2× binding buffer (100 mM Tris-HCl pH 7.4, 300 mM NaCl, 0.2% NP-40, 2 mM sodium orthovanadate, 2 mM sodium fluoride, and protease inhibitor cocktail) 27. The lysate was divided into three fractions to be treated with either DMSO, or 20 μM of bitoinylated-CLK8 (bait) with or without 200 μM CLK8 (competitor). The lysate-compound samples were incubated and mixed continuously at 4° C. for 1 hour. After equilibrating NeutroAvidin Agarose resin (Thermo Scientific) with lysis buffer, the lysate-compound mixture and NeutroAvidin Agarose resin were incubated and mixed continuously at 4° C. overnight. The beads were washed four times with 1× binding buffer. To elute the bound proteins Laemmli buffer was added and samples were heated at 95° C. for 7 minutes. The pull-down precipitates were subjected to SDS-PAGE and transferred to a PVDF membrane (Millipore). […]

CLOCK [3] = target: T2, CLOCK; test: Pull-down assay with biotinylated CLK8, U2OS lysate with endogenous CLOCK; assay type: binding; design: expressed in transfected cells; host or cells: HEK293T

CC1(C)CCc2c(cc(OCC(=O)Nc3ccccc3C(N)=O)c3c(-c4ccccc4)cc(=O)oc23)O1 [CLK8, 2-[2-({12,12-dimethyl-4-oxo-6-phenyl-3,11-dioxatricyclo [8.4.0.0,2,7]tetradeca-1,5,7,9-tetraen-8-yl}oxy)acetamido] benzamide] was tested, and the “amount of co-precipitated BMAL1” value [1] was “reduced as the concentration of CLK8 increased”, the “binding to CLOCK (competition with bait)” value (CLOCK [2]) was “specifically binds to CLOCK” and the “affinity for CLOCK” value (CLOCK [3]; endogenous CLOCK, input vs precipitated sample) was “high affinity for CLOCK”. For the same molecule, the “other core clock components as target” value (CLOCK [3]; except BMAL1, including NPAS2) was “none of the other core clock components were detected as a target”.
